Assay results taken from PMC8145107 (Pharmaceutics, 2021).
Several values for one entry are separate records, joined by “and”; a condition that tells them apart may be missing. Equal values may be shown once. Read-outs that look alike come from different tables or passages of the source.

Key:
[1] = system: L929: NCTC clone 929, mouse fibroblast cell line; test: Cytotoxicity in normal mammalian cells (L929); format: cell-based; conditions: L929, 24 h, 0.01-100 μM, read-out: IC50 of compounds in various normal mammalian cells
[2] = system: Salmonella typhimurium TA100; conditions: for Ames test outcome versus vehicle control: TA100, 48 h, J2 40 μg/plate, NA49 200 μg/plate
Method: (§1) To perform the Ames test of J2 and NA49, the number of revertant colonies was counted on each compound-treated plate at the maximum concentration at which the compound was soluble and nontoxic to the S. typhimurium tester strains (Supplementary Material S1). The ratio of the number of revertant colonies in the treated plate to colonies in the vehicle plate. […] For the hERG K^+ channel binding assay of J2 and NA49, the inhibitory activity against the hERG K^+ channel and its ligand was measured using a red fluorescent hERG channel ligand tracer. The final activity was assessed as a decrease in the degree of fluorescence polarization. […]
(§2) The test was conducted with maximum concentration at which the compound was
(§3) soluble and nontoxic to the S. typhimurium tester strains. #Factor = No. of revertant colonies
(§4) of treated plate colonies of vehicle control plate. […]

[3] = system: Salmonella typhimurium TA98; conditions: for Ames test outcome versus vehicle control: TA98, 48 h, J2 40 μg/plate, NA49 200 μg/plate
Method: as §1, §2, §3, §4

[4] = Log P by pH-metric method; format: physicochemical
[5] = Liver microsomal phase I stability assay (mouse); format: in vitro ADME; conditions: mouse liver microsomes
[6] = Liver microsomal phase I stability assay (human); format: in vitro ADME; conditions: human liver microsomes
[7] = In vitro human plasma stability; format: in vitro ADME; conditions: for Half-life predicted from in vitro plasma stability: human plasma
Method: Permeability was evaluated with a parallel artificial membrane permeability (PAMPA) assay using an artificially generated lipid-infused membrane.

[8] = Pharmacokinetic study after IV injection in rats; format: in vivo; conditions: male, Sprague-Dawley, plasma, rat
Description: Male Sprague–Dawley rats (7-week-old) and male Institute of Cancer Research (ICR) mice (5-week-old) were purchased from Orient Bio (Seongnam, Korea) and Samtako Bio (Osan, Korea), respectively. The experimental animals were housed under conventional conditions and fasted overnight before surgery for catheterization. All procedures for animal experiments were in accordance with the guidelines by the Ewha Woman’s University Institutional Animal Care and Use Committee (IACUC, 15-049 and 16-062), Korea.
The HPLC system used for this study was an Agilent HP1100 equipped with a quaternary pump with degasser, a variable wavelength detector, a thermostatted auto-sampler, and an HPLC 2D Agilent ChemStation software. A capcell-pak C18 MG120 column (3.0 × 250 mm, 5 µm, Shiseido, Tokyo, Japan) was used at 25 °C. The mobile phase was composed of water (0.1% trifluoroacetic acid) and acetonitrile (0.1% trifluoroacetic acid) (57:43 (v/v) for J2 and 50:50 (v/v) for NA49, respectively), filtered through a 0.45 μm Millipore filter and degassed prior to use, and the flow rate was 0.5 mL/min. UV detection was performed at 248 nm for J2 and at 246 nm for NA49, and the injection volume was 40 µL for both compounds. […] The accuracy (%) was calculated by dividing the mean of the measured drug concentration by the theoretical drug concentration. […] After extraction, the supernatant was transferred to a clean insert for HPLC analysis.
J2 and NA49 were dissolved in 10% DMAc and 10% Tween® 80 solution in saline to a concentration of 2.5 mg/mL for pharmacokinetic studies. The common carotid artery of the rat was catheterized under anesthesia using isoflurane the day before administration of J2 and NA49 [27]. Rats were divided into four groups. J2 and NA49 were administered to rats by intravenous (IV) injection at doses of 2 mg/kg and 10 mg/kg, respectively. Blood samples (0.2~0.25 mL) were collected at 0, 0.033, 0.083, 0.167, 0.33, 0.67, 1, 2, 3, 5, 7, 9, and 24 h following IV administration. The plasma samples obtained after centrifugation of the blood samples were stored at −20°C until HPLC analysis. The following pharmacokinetic parameters of J2 and NA49 were estimated by non-compartmental analysis using WinNonlin® Professional version 5.2 software (Pharsight Corporation, Mountain View, CA, USA): Initial drug concentration (C0), area under the plasma concentration–time curve from 0 h to the final sampling time point (AUC0-last), elimination half-life (t1/2), apparent volume of distribution (Vd), and total clearance (Cl).

CYP1A2 = biological target: T1, CYP1A2 (Homo sapiens, UniProt P05177); test: biochemical
T1 sequence (P05177 1-516): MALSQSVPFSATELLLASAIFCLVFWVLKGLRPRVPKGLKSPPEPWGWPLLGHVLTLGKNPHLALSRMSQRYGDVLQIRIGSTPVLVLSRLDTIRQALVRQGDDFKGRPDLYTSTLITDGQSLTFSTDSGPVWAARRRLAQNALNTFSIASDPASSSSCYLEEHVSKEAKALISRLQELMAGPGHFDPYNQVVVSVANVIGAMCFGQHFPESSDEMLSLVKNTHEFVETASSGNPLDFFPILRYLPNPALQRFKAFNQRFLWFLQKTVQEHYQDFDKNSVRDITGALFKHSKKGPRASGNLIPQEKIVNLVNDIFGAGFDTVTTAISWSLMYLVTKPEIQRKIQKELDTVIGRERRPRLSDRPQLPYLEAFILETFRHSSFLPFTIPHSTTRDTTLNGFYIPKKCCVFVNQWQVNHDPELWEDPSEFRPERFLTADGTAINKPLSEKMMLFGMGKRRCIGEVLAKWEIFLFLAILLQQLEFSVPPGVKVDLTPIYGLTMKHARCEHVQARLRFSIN

CYP450 3A4 = CYP450 3A4 (Homo sapiens, UniProt P08684); test: CYP450 enzyme inhibition, 3A4
CYP450 3A4, sequence (P08684 whole entry): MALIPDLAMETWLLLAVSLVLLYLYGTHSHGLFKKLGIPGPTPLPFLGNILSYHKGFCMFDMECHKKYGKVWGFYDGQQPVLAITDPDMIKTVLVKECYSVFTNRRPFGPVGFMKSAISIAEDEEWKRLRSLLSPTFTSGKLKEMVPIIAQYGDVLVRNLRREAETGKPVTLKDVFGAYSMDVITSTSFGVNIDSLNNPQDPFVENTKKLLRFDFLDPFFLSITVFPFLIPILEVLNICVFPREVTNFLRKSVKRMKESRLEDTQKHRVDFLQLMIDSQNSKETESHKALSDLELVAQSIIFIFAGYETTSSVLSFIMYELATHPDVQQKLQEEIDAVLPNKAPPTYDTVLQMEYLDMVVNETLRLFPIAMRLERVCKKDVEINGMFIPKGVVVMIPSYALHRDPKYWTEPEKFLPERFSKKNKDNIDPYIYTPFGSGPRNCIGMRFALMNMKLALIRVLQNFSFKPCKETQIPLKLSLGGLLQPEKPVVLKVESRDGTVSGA

[9] = TA100, with S-9 mix, J2 40, NA49 200, benzo(a)pyrene 2 μg/plate
[10] = TA100, without S-9 mix, J2 40, NA49 200 μg/plate
[11] = TA98, with S-9 mix, J2 40, NA49 200, benzo(a)pyrene 2 μg/plate
[12] = TA98, without S-9 mix, J2 40, NA49 200, positive controls 1-2 μg/plate

| SMILES | IC50 [1] [µM] | Factor (revertant colonies of treated plate/vehicle control plate) [2, 9] | Revertant colonies/plate (Mean ± S.D.) [2, 9] [colonies/plate] | Factor (revertant colonies of treated plate/vehicle control plate) [2, 10] | Revertant colonies/plate (Mean ± S.D.) [2, 10] [colonies/plate] | Ames test outcome versus vehicle control [2] | Factor (revertant colonies of treated plate/vehicle control plate) [3, 11] | Revertant colonies/plate (Mean ± S.D.) [3, 11] [colonies/plate] | Factor (revertant colonies of treated plate/vehicle control plate) [3, 12] | Revertant colonies/plate (Mean ± S.D.) [3, 12] [colonies/plate] | Ames test outcome versus vehicle control [3] | logP [4] | In vitro Metabolic Stability (% of remaining after 30 min) [5] [%] | In vitro Metabolic Stability (% of remaining after 30 min) [6] [%] | Half-life predicted from in vitro plasma stability [7] | In vitro Human Plasma Stability at 37 °C (% of remaining after 1 h) ([7]; treated with 0.5 μg/mL) | In vitro Human Plasma Stability at 37 °C (% of remaining after 1 h) ([7]; treated with 5 μg/mL) | AUC(0-t) ([8]; 2 mg/kg) [ng·h/mL] | C0 ([8]; 2 mg/kg) [ng/mL] | Vd ([8]; 2 mg/kg) [L] | other results |
| --- | --- | --- | --- | --- | --- | --- | --- | --- | --- | --- | --- | --- | --- | --- | --- | --- | --- | --- | --- | --- | --- |
| Cc1cc(=O)c2c(O)cc(OCC3CS3)cc2o1 (stereo not shown) [J2] | > 100 | 3.1 | 418 ± 9 | 6.0 | 643 ± 70 | increased bacterial reverse mutation | 3.8 | 65 ± 2 | 3.6 | 57 ± 7 | increased bacterial reverse mutation | 2.78 | 6.2 ± 2.55 | 47.8 ± 4.50 | about 3 h | 76.2% and 76.2 ± 0.72% | 82.7% and 82.7 ± 0.73% | 180 ± 50 | 1640 ± 730 | 0.77 ± 0.27 | clearance ([8]; 2 mg/kg): 46.5 mL/min; half-life ([8]; 2 mg/kg): 0.19 ± 0.07 h; AUC(0-t) ([8]; 10 mg/kg): 1480 ± 750 ng·h/mL; C0 ([8]; 10 mg/kg): 6960 ± 2600 ng/mL; Vd ([8]; 10 mg/kg): 1.05 ± 0.72 L; clearance ([8]; 10 mg/kg): 31.7 mL/min; half-life ([8]; 10 mg/kg): 0.45 ± 0.3 h; IC50 (CYP1A2): 0.1 µM; IC50 (CYP450 3A4): > 50 µM |
| COc1ccc(-c2coc3cc(OCC4CS4)ccc3c2=O)c(OC)c1 (stereo not shown) [NA49] | 91.9 | 1.9 | 262 ± 11 | 2.0 | 229 ± 2 | no significant increase | 1.3 | 22 ± 2 | 1.2 | 19 ± 3 | no significant increase | 3.04 | 2.4 ± 0.95 | 24.9 ± 0.77 | > 6 h | 146.6% and 146.6 ± 0.01% | 101.4% and 101.4 ± 0.13% | 210 ± 70 | 720 ± 400 | 3.35 ± 1.69 | clearance ([8]; 2 mg/kg): 30.7 mL/min; half-life ([8]; 2 mg/kg): 1.4 ± 0.84 h; AUC(0-t) ([8]; 10 mg/kg): 1240 ± 590 ng·h/mL; C0 ([8]; 10 mg/kg): 4960 ± 1120 ng/mL; Vd ([8]; 10 mg/kg): 4.13 ± 1.87 L; clearance ([8]; 10 mg/kg): 30 mL/min; half-life ([8]; 10 mg/kg): 1.55 ± 0.48 h; IC50 (CYP1A2): > 50 µM; IC50 (CYP450 3A4): > 50 µM |
